Source: patent publication US20100069341A1, “TETRAHYDRO-PYRANOPYRAZOLE CANNABINOID MODULATORS” (priority 2005, published 2010)
Where two headings read alike, the source gives them in different places.

Experiments:
[1] = molecular target: T1, Cannabinoid CB2 Receptor (Homo sapiens, UniProt P34972); experiment: Binding assay, cannabinoid CB2 receptor ([3H]-CP-55,940 displacement, SK-N-MC cell membranes); settings: test concentration of 0.2 μM; human CB2 in SK-N-MC membranes; read-out: Cannabinoid CB2 Receptor Binding, percent inhibition
T1 construct: expressed in transfected cells; semi-purified membrane pellet
Protocol: (§1) Binding Assay for CB1 or CB2 Agonists or Inverse Agonists
(§2) The human CB1 and CB2 receptors were stably expressed in SK-N-MC cells transfected with pcDNA3 CB-1 (human) or pcDNA3 CB-2 (human). The cells were grown in T-180 cell culture flasks under standard cell culture conditions at 37° C. in a 5% CO2 atmosphere. The cells were harvested by trysinization and homogenized in a homogenization buffer (10 mM Tris, 0.2 mM MgCl2, 5 mM KCl, with protease inhibitors aprotinin, leupeptin, pepstatin A and bacitracin) and centrifuged (2000 g). The supernatant was then centrifuged in 2M sucrose (31,300 g) to produce a semi-purified membrane pellet. The pellet was resuspended in homogenization and store at −80° C.
(§3) On the day of the assay, the pellet was thawed on ice and diluted in assay buffer (50 mM Tris-HCl, 5 mM MgCl2, 2.5 mM EDTA, 0.5 mg/mL fatty acid free bovine serum albumin, pH 7.5). The diluted membrane was added with buffer, test compound or standard and the radioligand [H]^3+-CP-55,940 (0.2 nM) to the wells of a 96-well polypropylene plate. Non-specific binding was measured in wells containing 10 uM WIN 55,212. The plate was covered and incubated for 90 minutes at 30° C. The contents were then aspirated onto a Packard Unifilter GF/C filter bottom plate prewet with 0.5% polyethyleneimine. The wells of the polypropylene plate were rinsed and aspirated seven times with a 0.9% saline-0.5% Tween 20 solution. The Unifilter plate was dried, a scintillation cocktail was added to each well and the counts representing binding were quantitated in a TopCount scintillation counter.
For compounds tested, an IC50 binding value was obtained from percent inhibition studies in which various test concentrations were used. The binding value (in μM) was calculated by linear regression. For compounds without an IC50 binding value, the percent inhibition (in %) was obtained at a test concentration of 0.2 μM.

[2] = molecular target: T2, Cannabinoid CB1 Receptor (Homo sapiens, UniProt P21554); experiment: Binding assay, cannabinoid CB1 receptor ([3H]-CP-55,940 displacement, SK-N-MC cell membranes); settings: for inhibition at 0.2 µM: read-out: Cannabinoid CB1 Receptor Binding, percent inhibition
T2 construct: expressed in transfected cells; semi-purified membrane pellet
Protocol: as §1, §2
as §3, with “The diluted membrane was added with buffer, test compound or standard and the radioligand [H]^3+-CP-55,940 (0.2 nM) to the wells of a 96-well polypropylene plate. Non-specific binding was measured in wells containing 10 uM WIN 55,212.” left out
For compounds tested, an IC50 binding value was obtained from percent inhibition studies in which various test concentrations were used. The binding value (in μM) was calculated by linear regression.

[3] = test concentration of 0.2 μM, human CB1 in SK-N-MC membranes

T2 sequence (P21554 whole entry): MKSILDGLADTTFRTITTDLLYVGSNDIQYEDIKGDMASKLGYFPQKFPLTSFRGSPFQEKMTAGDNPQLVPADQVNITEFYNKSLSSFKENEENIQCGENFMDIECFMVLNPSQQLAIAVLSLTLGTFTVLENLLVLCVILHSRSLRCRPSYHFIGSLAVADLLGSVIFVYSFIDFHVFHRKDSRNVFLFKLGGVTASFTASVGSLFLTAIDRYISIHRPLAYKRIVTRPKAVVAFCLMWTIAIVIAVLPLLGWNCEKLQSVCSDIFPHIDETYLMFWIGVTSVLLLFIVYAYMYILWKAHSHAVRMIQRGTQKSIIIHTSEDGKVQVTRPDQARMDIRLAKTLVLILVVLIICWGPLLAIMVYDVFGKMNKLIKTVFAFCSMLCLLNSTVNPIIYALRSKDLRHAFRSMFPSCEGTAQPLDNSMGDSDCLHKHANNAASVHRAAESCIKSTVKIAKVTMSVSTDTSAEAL
T1 sequence (P34972 whole entry): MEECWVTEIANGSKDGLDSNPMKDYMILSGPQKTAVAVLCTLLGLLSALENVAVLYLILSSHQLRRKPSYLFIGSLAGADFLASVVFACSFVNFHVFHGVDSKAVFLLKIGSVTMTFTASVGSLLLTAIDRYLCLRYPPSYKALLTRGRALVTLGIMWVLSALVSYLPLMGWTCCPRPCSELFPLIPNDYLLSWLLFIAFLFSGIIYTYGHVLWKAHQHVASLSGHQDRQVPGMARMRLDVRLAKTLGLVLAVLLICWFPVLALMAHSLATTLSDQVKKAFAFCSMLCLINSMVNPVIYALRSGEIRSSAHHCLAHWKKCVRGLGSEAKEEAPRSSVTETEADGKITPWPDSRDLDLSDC

Compound	inhibition at 0.2 µM [1]	IC50 [2]	inhibition at 0.2 µM [2, 3]	inhibition at 0.2 µM [2]
C[C@@H](NC(=O)c1nn(-c2ccc(Cl)cc2Cl)c2c1COC/C2=C\c1ccc(F)cc1)c1ccccc1 [Cpd 2, (7 Z)-1-(2,4-dichloro-phenyl)-7-(4-fluoro-benzylidene)-1,4,6,7-tetrahydro-pyrano[4,3-c]pyrazole-3-carboxylic acid [(1R)-1-phenyl-ethyl]-amide]	23%	13 nM	87%	
C[C@@H](NC(=O)c1nn(-c2ccc(Cl)cc2Cl)c2c1COC/C2=C\c1cccs1)C1CCCCC1 [Cpd 33, (7Z)-1-(2,4-dichloro-phenyl)-7-thiophen-2-ylmethylene-1,4,6,7-tetrahydro-pyrano[4,3-c]pyrazole-3-carboxylic acid [(R)-1-cyclohexyl-ethyl]-amide]	15%	10 nM	88%	
C[C@@H](NC(=O)c1nn(-c2ccc(Cl)cc2Cl)c2c1COC/C2=C\c1ccc(Cl)s1)c1ccccn1 [Cpd 61, (7Z)-7-(5-chloro-thiophen-2-ylmethylene)-1-(2,4-dichloro-phenyl)-1,4,6,7-tetrahydro-pyrano[4,3-c]pyrazole-3-carboxylic acid [(R)-1-pyridin-2-yl-ethyl]-amide]	9.5%	50 nM	84%	
CC1CCCC(C)N1NC(=O)c1nn(-c2ccc(Cl)cc2Cl)c2c1COC/C2=C\c1ccc(F)cc1 (centres unmarked) [Cpd 27, (7Z)-1-(2,4-dichloro-phenyl)-7-(4-fluoro-benzylidene)-1,4,6,7-tetrahydro-pyrano[4,3-c]pyrazole-3-carboxylic acid (2,6-dimethyl-piperidin-1-yl)-amide]	20%	40 nM	77%	
C[C@@H](NC(=O)c1nn(-c2ccc(Cl)cc2)c2c1COC/C2=C\c1ccc(F)cc1)c1ccccc1 [Cpd 12, (7Z)-1-(4-chloro-phenyl)-7-(4-fluoro-benzylidene)-1,4,6,7-tetrahydro-pyrano[4,3-c]pyrazole-3-carboxylic acid [(1R)-1-phenyl-ethyl]-amide]	5%	50 nM	81%	
O=C(NN1CCCC1)c1nn(-c2ccc(Cl)cc2)c2c1COC/C2=C\c1ccc(F)cc1 [Cpd 16, (7Z)-1-(4-chloro-phenyl)-7-(4-fluoro-benzylidene)-1,4,6,7-tetrahydro-pyrano[4,3-c]pyrazole-3-carboxylic acid pyrrolidin-1-ylamide]	11%		44%	
O=C(c1nn(-c2ccc(Cl)cc2Cl)c2c1COC/C2=C\c1ccc(F)cc1)N1CCC[C@H]1CO [Cpd 21, (7Z)-[1-(2,4-dichloro-phenyl)-7-(4-fluoro-benzylidene)-1,4,6,7-tetrahydro-pyrano[4,3-c]pyrazol-3-yl]-[(2S)-2-hydroxymethyl-pyrrolidin-1-yl]-methanone]	15%		59%	
CC1CCCC(C)N1NC(=O)c1nn(-c2ccc(Cl)cc2Cl)c2c1COC/C2=C\c1ccc(Cl)s1 (centres unmarked) [Cpd 55, (7Z)-7-(5-chloro-thiophen-2-ylmethylene)-1-(2,4-dichloro-phenyl)-1,4,6,7-tetrahydro-pyrano[4,3-c]pyrazole-3-carboxylic acid (2,6-dimethyl-piperidin-1-yl)-amide]	11%		65%	
O=C(NN1CCCCC1)c1nn(-c2ccc(Cl)cc2Cl)c2c1COC/C2=C\c1ccsc1 [Cpd 43, (7Z)-1-(2,4-dichloro-phenyl)-7-thiophen-3-ylmethylene-1,4,6,7-tetrahydro-pyrano[4,3-c]pyrazole-3-carboxylic acid piperidin-1-ylamide]	19%	30 nM	83%	
O=C(NN1CCCCCC1)c1nn(-c2ccc(Cl)cc2Cl)c2c1COC/C2=C\c1ccsc1 [Cpd 44, (7Z)-1-(2,4-dichloro-phenyl)-7-thiophen-3-ylmethylene-1,4,6,7-tetrahydro-pyrano[4,3-c]pyrazole-3-carboxylic acid azepan-1-ylamide]	16%	20 nM	86%	
O=C(N[C@@H]1CCC[C@H]1O)c1nn(-c2ccc(Cl)cc2Cl)c2c1COC/C2=C\c1ccc(F)cc1 [Cpd 3, (7Z)-1-(2,4-dichloro-phenyl)-7-(4-fluoro-benzylidene)-1,4,6,7-tetrahydro-pyrano[4,3-c]pyrazole-3-carboxylic acid [(1R,2R)-2-hydroxy-cyclopentyl]-amide]	0%		32%	
C[C@@H](NC(=O)c1nn(-c2ccc(Cl)cc2)c2c1COC/C2=C\c1ccc(F)cc1)C1CCCCC1 [Cpd 13, (7Z)-1-(4-chloro-phenyl)-7-(4-fluoro-benzylidene)-1,4,6,7-tetrahydro-pyrano[4,3-c]pyrazole-3-carboxylic acid [(1R)-1-cyclohexyl-ethyl]-amide]	25%	20 nM		84%
O=C(NN1CC2CCCC2C1)c1nn(-c2ccc(Cl)cc2)c2c1COC/C2=C\c1ccc(F)cc1 (centres unmarked) [Cpd 15, (7Z)-1-(4-chloro-phenyl)-7-(4-fluoro-benzylidene)-1,4,6,7-tetrahydro-pyrano[4,3-c]pyrazole-3-carboxylic acid (hexahydro-cyclopenta[c]pyrrol-2-yl)-amide]	18%	80 nM	81%	
CC(NC(=O)c1nn(-c2ccc(Cl)cc2Cl)c2c1COC/C2=C\c1ccc(Cl)s1)c1ccccn1 (centres unmarked) [Cpd 60, (7Z)-7-(5-chloro-thiophen-2-ylmethylene)-1-(2,4-dichloro-phenyl)-1,4,6,7-tetrahydro-pyrano[4,3-c]pyrazole-3-carboxylic acid (1-pyridin-2-yl-ethyl)-amide]	7%		58%	
C[C@@H](NC(=O)c1nn(-c2ccc(Cl)cc2Cl)c2c1COC/C2=C\c1ccc(Cl)o1)C1CCCCC1 [Cpd 62, (7Z)-7-(5-chloro-furan-2-ylmethylene)-1-(2,4-dichloro-phenyl)-1,4,6,7-tetrahydro-pyrano[4,3-c]pyrazole-3-carboxylic acid [(R)-1-cyclohexyl-ethyl]-amide]	17%	30 nM		74%
O=C(NN1CCCCC1)c1nn(-c2ccc(Cl)cc2Cl)c2c1COCC2Cc1ccc(F)cc1 (centres unmarked) [Cpd 23, 1-(2,4-dichloro-phenyl)-7-(4-fluoro-benzyl)-1,4,6,7-tetrahydro-pyrano[4,3-c]pyrazole-3-carboxylic acid piperidin-1-ylamide]	19%		59%	
CC(NC(=O)c1nn(-c2ccc(Cl)cc2Cl)c2c1COC/C2=C\c1ccc(Cl)o1)c1ccccn1 (centres unmarked) [Cpd 67, (7Z)-7-(5-chloro-furan-2-ylmethylene)-1-(2,4-dichloro-phenyl)-1,4,6,7-tetrahydro-pyrano[4,3-c]pyrazole-3-carboxylic acid (1-pyridin-2-yl-ethyl)-amide]	7%		40%	
O=C(NN1CC2CCCC2C1)c1nn(-c2ccc(Cl)cc2Cl)c2c1COCC2Cc1ccc(F)cc1 (centres unmarked) [Cpd 22, 1-(2,4-dichloro-phenyl)-7-(4-fluoro-benzyl)-1,4,6,7-tetrahydro-pyrano[4,3-c]pyrazole-3-carboxylic acid (hexahydro-cyclopenta[c]pyrrol-2-yl)-amide]	18%		66%	
O=C(NCc1ccccn1)c1nn(-c2ccc(Cl)cc2Cl)c2c1COC/C2=C\c1ccc(F)cc1 [Cpd 6, (7Z)-1-(2,4-dichloro-phenyl)-7-(4-fluoro-benzylidene)-1,4,6,7-tetrahydro-pyrano[4,3-c]pyrazole-3-carboxylic acid (pyridin-2-ylmethyl)-amide]	25%		37%	
O=C(c1nn(-c2ccc(Cl)cc2Cl)c2c1COC/C2=C\c1ccc(F)cc1)N1CCC[C@@H]1CO [Cpd 20, (7Z)-[1-(2,4-dichloro-phenyl)-7-(4-fluoro-benzylidene)-1,4,6,7-tetrahydro-pyrano[4,3-c]pyrazol-3-yl]-[(2R)-2-hydroxymethyl-pyrrolidin-1-yl]-methanone]	18%		27%	
